Measurements published in paper PMC7355684 (Pharmaceutics, 2020).
Where a SMILES comes first, the peptide text is derived from it. The star is where a group is joined. Daunorubicin(13-NOCH2CO) = COc1cccc2c1C(=O)c1c(O)c3c(c(O)c1C2=O)C[C@@](O)(C(C)=NOCC(=O)*)C[C@@H]3O[C@H]1C[C@H](N)[C@H](O)[C@H](C)O1

How the values were obtained:
Colo-205 cells = format: cell-based, human; conditions: 1e-5 M
Description: (§1) EBC-1 and Colo-205 model cells have weak/negligible adherent properties, and A2058 cells could not produce constant cell index values. Therefore, a colorimetric assay (alamarBlue-assay) was chosen instead of the xCELLigence system to investigate the viability of these model cells treated with the conjugates. Due to the growth characteristics of NHDF cells, alamarBlue-assay was performed also on this cell line.
(§2) The protocol for the alamarBlue-assay was similar to the method which was published earlier, with some minor modifications. Briefly, the cell seeding occurred on 96-well cell culture plates (Sarstedt AG, Nümbrecht, Germany) at 10^4 cells/well concentration. After a 24 h long culturing period, the treatment was carried out with the conjugates at 10^−4, 10^−5 and 10^−6 M final concentrations for 24, 48 and 72 h. In the next steps, the alamarBlue reagent (0.15 mg/mL, Sigma-Aldrich) dissolved in phosphate-buffered saline (PBS; pH = 7.2), was added to the wells. After 6 h incubation with the reagent, the fluorescence intensity of the samples was obtained by an LS-50B Luminescence Spectrometer (Perkin Elmer Ltd., Buckinghamshire, UK) or a Fluoroskan^TM FL Microplate Fluorometer and Luminometer (Thermo Scientific, Waltham, MA, USA) by using the following settings: λex = 560 nm and λem = 590 nm.
(§3) Three parallels were performed per treatment group. In the case of controls, an equivalent volume of cell culture media was added to the cell. Fluorescence intensities of the samples treated with various concentrations of conjugates were expressed as a percentage of the fluorescence of control.

A2058 cells = format: cell-based, human; conditions: 1e-5 M
Description: as §1, §2, §3

EBC-1 cells = format: cell-based, human; conditions: 1e-5 M
Description: as §1, §2, §3

PANC-1 cells [1] = assay: cells; format: cell-based, human
Description: This measurement is based on the registration of electrical resistance (impedance, Z) in alternating current (AC) field. The living cells transplanted to the gold measuring electrodes are physically insulated by phospholipid bilayer that covers them. This instrumentally measurable property changes (decreases) in response to cellular cytotoxic agents. Our measurements were performed on xCELLigence single plate (ACEA Biosciences, San Diego, CA, USA) dedicated for impedimetric analysis of cellular samples at 37 °C and 5% CO2.
During the initial phase of the experiments—the baseline recording—a special 96-well cell culture plate, E-plate (ACEA Biosciences), equipped with measuring electrodes, was pretreated with freshly prepared cell culture medium (for 60 min; sampling frequency: 1 min). Subsequently, PANC-1 cells were plated at a cell density of 10^4 cells/well. During the 24 h incubation, the cells evenly covered the electrodes at the bottom of the wells of the E-plate. The resulting confluent cell cultures were then treated with the test substances at the following final concentrations: 10^−6, 10^−5, 10^−4 M. Total treatment duration was 72 h and the sampling rate was 1 min (0–24 h); and then 15 min (48–72 h). In our measurements, three replicates were used, the control was the drug-free medium. […] The CI results were analyzed with xCELLigence RTCA 2.0 software and Origin Pro 8.0 software.

[2] = Acute and chronic toxicity in healthy mice; format: in vivo; conditions: healthy Balb/c male mice, 3 per group; i.p.; acute 3.125, 6.25, 12.5, 25 mg/kg Dau-content single; chronic 10 mg/kg Dau-content on days 1, 3, 7, 9, 11; 14 days
Description: Prior to the determination of in vivo antitumor activity, the acute and chronic toxicity studies of conjugate 4 (Dau=Aoa-GFLG-K(Dau=Aoa)-SKAAKN-OH) were investigated. Healthy Balb/c male mice (3 animals in each group with 29–33 g body weight) were used for these experiments. The conjugate was dissolved in sterile water for injection (Pharmamagist Kft., Budapest, Hungary) and injected in a volume of 0.1 mL/10 g body weight using the appropriate concentrations. In acute toxicity study, intraperitoneal (i.p.) administration of the conjugate 4 was carried out in 4 different doses: 3.125, 6.25, 12.5 and 25 mg/kg Dau-content. In chronic toxicity study, mice were treated with a dose of 10 mg/kg Dau-content of the conjugate on days 1, 3, 7, 9 and 11 (5 treatments). The toxicity was evaluated on the basis of life span, behavior and looking of the mice, as well as body weight. These parameters were followed for 14 days.

PANC-1 cells [3] = assay: Colorimetric (alamarBlue) cytotoxicity on PANC-1; format: cell-based; conditions: Homo sapiens, concentration needed to decrease the cell viability by 50%, read-out: IC50 (colorimetry)
Description: as §2
Three parallels were performed per treatment group. […] Fluorescence intensities of the samples treated with various concentrations of conjugates were expressed as a percentage of the fluorescence of control.
To confirm that the different methods can be used to compare the effects of conjugates on the different model cells, the cytotoxicity of Dau was measured by both impedimetric and colorimetric methods on PANC-1 cells.

[4] = test system: s.c. PANC-1 human pancreatic carcinoma; assay: Subcutaneous PANC-1 human pancreatic cancer mouse model; format: in vivo, SCID mice
Description: For establishing pancreatic tumor in experimental animals, PANC-1 cells were used, which were cultured in RPMI 1640 medium (Lonza), supplemented with 10% heat-inactivated FBS (Biosera, Nuaille, France), and 1% penicillin/streptomycin (Lonza). They were cultured in sterile T175 flasks (Sarstedt AG) with a ventilation cap at 37 °C in a humidified atmosphere with 5% CO2.
Pancreatic cancer (PANC-1) cells were injected into SCID male mice (22–34 g) subcutaneously (s.c.), 3 × 10^6 cells per animal in 200 µL M199 (Sigma-Aldrich) per animal. The (i.p.) administration of treatment started 10 days after cells inoculation when the average tumor volume was 36 mm^3. Four groups with 7 animals per group were established and treated. The doses and schedule were as follows: control group was treated with sterile water used for the solubilization of Dau and the conjugates, while animals in the group administered with free Dau were treated on days 10, 19 and 24 after cell inoculation with a dose of 1 mg/kg. Mice administered with the conjugate 4 were separated in two groups and treated either with a dose of 10 mg/kg Dau-content (21.6 mg/kg conjugate) or with a dose of 2 mg/kg Dau-content (4.3 mg/kg conjugate) on days 10, 13, 19, 21, 24, 28, 31, 34, 39, 42, 46, 49, 53, 56, 60, 63, 67 and 70 after cells inoculation. Animal weight and tumor volumes were measured initially when the treatment started and at periodic intervals according to the treatment schedule. A digital caliper was used to measure the longest (a) and the shortest diameter (b) of a given tumor. The tumor volume was calculated using the formula V = ab^2 × π/6, where a and b represent the measured parameters (length and width). The experiment was terminated on day 74 after cells inoculation (day 65 of treatment). Animals treated with free Dau had to be terminated after 3 treatments on day 28 after cells inoculation (day 19 of treatment) due to significant weight-loss. Animals were sacrificed by cervical dislocation; primary tumors and livers were harvested and weighted.

PANC-1 cells [5] = assay: Flow cytometric cell surface binding and internalization; format: cell-based, human; conditions: 10^-5 M, flow cytometry, mean of 2 parallels ± SD
Description: Cell surface binding and internalization of the conjugates were performed by flow cytometry (FACS-Calibur, Becton Dickinson, San Jose, CA, USA) based on the detection of the fluorescence activity of Dau (λex = 488 nm, λem = 585 nm) linked to the peptides. Studies of binding and uptake were performed on PANC-1 cells.
Cells were seeded (2.5 × 10^5 cells/mL, 900 μL/well) on 12-well plates, 24 h prior to the treatment with conjugates and free Dau. To distinguish the cell surface binding and internalization of conjugates, the cells were treated with the conjugate solutions at a final concentration of 10^−5 M at two temperatures (37 °C and 4 °C) in parallel. After the incubation period of 30 min, cells were washed with PBS and were removed from the plate using TrypLE (Thermo Fisher Scientific, Waltham, MA, USA) cell-dissociation reagent, thus avoiding cell surface protein degradation. […] After the centrifugation of the cell suspension, the cell pellets were resuspended in PBS (400 μL/tube) and the samples were measured by a flow cytometer.
To determine the fluorescence intensity and to evaluate the results CellQuest Pro (Becton Dickinson) and Flowing2.5.1. […] The instrument determines the relative fluorescence intensity of Dau built in the conjugates as geometric mean channel (GeoMean) value. […]

[6] = in vivo; cited from earlier work
From the text: Daunomycin (Dau) was applied as a payload. It was indicated in our previous research that Dau can be attached to peptides via oxime linkage easily with good yields. […] It might be because of the lower DNA binding affinity of the Dau containing metabolite compared to Dau. However, the oxime linked conjugates are stable in the circulation and no loss of Dau can be observed before reaching the target cells.

SMILES | Viability (%) at 10-5 M concentration, after 72 h incubation, Colo-205 (Colo-205 cells) [%] | Viability (%) at 10-5 M concentration, after 72 h incubation, A2058 (A2058 cells) [%] | Viability (%) at 10-5 M concentration, after 72 h incubation, EBC-1 (EBC-1 cells) [%] | Cell viability at 10^−6 M (PANC-1 cells [1]; 24 h, 1e-6 M) | Viability after 24 h (PANC-1 cells [1]; 24 h, 1e-5 M) [%] | Acute and chronic toxicity (body weight, general looking, behavior) [2] | IC50 (PANC-1 cells [3]) [nM] | Animal weight decrease compared to start of the experiment ([4]; free Dau 1 mg/kg i.p., 3 treatments, day 28 after cell inoculation) [%] | Decrease of average liver/body weight ratio vs control ([4]; free Dau 1 mg/kg i.p., three times, day 28 after cell inoculation) [%] | Inhibition of tumor growth (tumor volume) ([4]; free Dau 1 mg/kg i.p., day 28 after cell inoculation (day 19 of treatment)) [%] | Liver / body weight (printed in Figure 9D, %) ([4]; free Dau 1 mg/kg, three treatments, day 28, relative to control) [%] | Relative fluorescence intensity (GeoMean values), Cellular uptake (PANC-1 cells [5]; 30 min, GeoMean at 37 °C minus GeoMean at 4 °C) | Relative fluorescence intensity (GeoMean values), Binding (PANC-1 cells [5]; 30 min at 4 °C, Dau fluorescence, corrected for autofluorescence) | Maximum tolerated dose (MTD) [6] [mg/kg] | IC50 (PANC-1 cells [1]; Homo sapiens, PANC-1, read-out: IC50 (impedimetry)) [nM]
COc1cccc2c1C(=O)c1c(O)c3c(c(O)c1C2=O)C[C@@](O)(C(C)=NOCC(=O)NCCCC[C@H](NC(=O)CNC(=O)[C@H](CC(C)C)NC(=O)[C@H](Cc1ccccc1)NC(=O)CNC(=O)CON=C(C)[C@]1(O)Cc2c(O)c4c(c(O)c2[C@@H](O[C@H]2C[C@H](N)[C@H](O)[C@H](C)O2)C1)C(=O)c1c(OC)cccc1C4=O)C(=O)N[C@@H](CO)C(=O)N[C@@H](CCCCN)C(=O)N[C@@H](C)C(=O)N[C@@H](C)C(=O)N[C@@H](CCCCN)C(=O)N[C@@H](CC(N)=O)C(=O)O)C[C@@H]3O[C@H]1C[C@H](N)[C@H](O)[C@H](C)O1 [conjugate 4, Dau=Aoa-GFLG-K(Dau=Aoa)SKAAKN-OH] ({Daunorubicin(13-NOCH2CO)}-GFLGK(Daunorubicin(13-NOCH2CO))SKAAKN-OH) | 19.8 ± 0.5 | 29.8 ± 4.5 | 32.2 ± 4.2 | higher than 100% | 91 | not toxic at the applied concentrations | – | – | – | – | – | – | – | – | –
COc1cccc2c1C(=O)c1c(O)c3c(c(O)c1C2=O)C[C@@](O)(C(C)=O)C[C@@H]3O[C@H]1C[C@H](N)[C@H](O)[C@H](C)O1 [Dau, Daunomycin] | – | – | – | – | – | – | 179 | 21 | 29.1 | 35.7 | 70.9 | 702.048 ± 84.340 | 72.057 ± 3.907 | 1 to 2 | 189
